Assay [1] deals with BRD4 BD2 (Homo sapiens, UniProt O60885). In words: AlphaScreen assay, BRD4 BD2 inhibition. The following applies: for inhibitory activity for BD2 (in words): AlphaScreen.
In assay [2] the target is BRD4 BD1 (Homo sapiens, UniProt O60885). Nature of the assay: AlphaScreen assay, BRD4 BD1 inhibition. Type of assay: binding. As to conditions: for inhibitory activity against BD1 (in words): measured range 0.0096 to 32 μM. As to the method:
To find the hit molecules for BRD4 bromodomain inhibitor discovery, we performed an in vitro AlphaScreen assay with in-house chemical libraries.
The AlphaScreen assay was described previously and performed according to the manufacturer’s protocol (PerkinElmer, USA). The reaction buffer was 50 mM HEPES pH 7.4, 100 mM NaCl, 0.1% BSA, and 0.05% CHAPS.
On the technique in general: Alpha assays give light when donor and acceptor beads are brought close together.

The mark [3] stands for this setting: AlphaScreen, N = 3, standard deviations in parentheses, read-out: IC50 (BD1).
Setting [4] is: Supplementary Table S2, mean of three independent measurements, 8-point titration from 0.0096 to 32 μM, read-out: IC50 (μM) for BD1.

Like-named read-outs stand apart in the source and are kept apart here. Bounds are passed on as bounds.

Broadly, the IC50 is the point on the concentration scale where inhibition reaches its midpoint. As to `Cc1nnc2ccc(NCCc3c[nH]c4ccccc34)nn12` [Compound 5], the IC50 came to 23.2 µM in assay [1] and 17.1 µM in assay [2] (setting [3]). In addition, in assay [1], the “inhibitory activity for BD2 (in words)” value was “have inhibitory activities for BD2”.
Consider `FC(F)(F)c1nnc2ccc(NCCc3c[nH]c4ccccc34)nn12` [Compound 6, N-[2-(1H-indol-3-yl)ethyl)-3-(trifluoromethyl)-[1,2,4]triazolo[4,3-b]pyridazin-6-amine], for which, in assay [1], half-maximal inhibition (IC50) required 11.3 µM and the “inhibitory activity for BD2 (in words)” value is “have inhibitory activities for BD2”. Also, the “inhibitory activity against BD1 (in words)” value in assay [2] (AlphaScreen) is reported as “did not much improved the IC50 value”. The 50% inhibitory concentration (IC50) in assay [2] (setting [3]) turned out to be 9.6 µM.
`Cc1nnc2ccc(NCCc3c[nH]c4ccc(F)cc34)nn12` [Compound 7, N-[2-(5-fluoro-1H-indol-3-yl)ethyl]-3-methyl-[1,2,4]triazolo[4,3-b]pyridazin-6-amine]: the “inhibitory activity against BD1 (in words)” value in assay [2] (AlphaScreen) is listed as “nearly same blocking efficacy”. Also, the IC50 in assay [2] (setting [4]) came to 29 ± 5.7 µM.
The matching figures for `COc1ccc2[nH]cc(CCNc3ccc4nnc(C)n4n3)c2c1` [Compound 8, N-[2-(5-methoxy-1H-indol-3-yl)ethyl)-3-methyl-[1,2,4]triazolo[4,3-b]pyridazin-6-amine]: “nearly same blocking efficacy” and 25.7 ± 11.1 µM.
In the case of `FC(F)(F)c1nnc2ccc(NCC(c3ccccc3)c3c[nH]c4ccccc34)nn12` (stereo not drawn) [Compound 9, N-[2-(1H-indol-3-yl)-2-phenylethyl]-3-(trifluoromethyl)-[1,2,4]triazolo[4,3-b]pyridazin-6-amine], the “inhibitory activity against BD1 (in words)” value in assay [2] (AlphaScreen) is “increased the IC50 value by only twofold compared to that of 6”. In addition, in assay [2] (setting [4]), the IC50 stood at 23.4 ± 8.3 µM.
As to `Fc1cc2[nH]cc(CCNc3ccc4nnc(C5CC5)n4n3)c2cc1Cl` [Compound 10, N-[2-(5-chloro-6-fluoro-1H-indol-3-yl)ethyl]-3-cyclopropyl-[1,2,4]triazolo[4,3-b]pyridazin-6-amine], in assay [2] (AlphaScreen), the “inhibitory activity against BD1 (in words)” value is “no inhibitory efficiency in the measured range”. In addition, the IC50 in assay [2] (setting [4]) was above 32 µM.
As to `Fc1ccc2[nH]c3c(c2c1)CCN(c1ccc2nnc(-c4ccccc4F)n2n1)C3` [Compound 11, 6-Fluoro-2-[3-(2-fluorophenyl)-[1,2,4]triazolo[4,3-b]pyridazin-6-yl]-1,3,4,9-tetrahydropyrido[3,4-b]indole], the “inhibitory activity against BD1 (in words)” value in assay [2] (AlphaScreen) was “no inhibition”. For the same compound, the IC50 in assay [2] (setting [4]) was above 32 µM.
Consider `CCc1nnc2ccc(NC(CO)Cc3c[nH]c4ccccc34)nn12` (stereo not drawn) [Compound 12, 2-[(3-ethyl-[1,2,4]triazolo[4,3-b]pyridazin-6-yl)amino]-3-(1H-indol-3-yl)propan-1-ol], for which the IC50 is 36.5 µM in assay [1] and 25.2 µM in assay [2] (setting [3]). Also, the “inhibitory activity for BD2 (in words)” value in assay [1] is recorded as “have inhibitory activities for BD2”. Also, the “inhibitory activity against BD1 (in words)” value in assay [2] (AlphaScreen) is “decreased blocking efficiency compared to that of 5”.
Take `Cc1nnc2ccc(N3CCCCC3)nn12` [Compound 13]: the “inhibitory activity against BD1 (in words)” value in assay [2] (AlphaScreen) is on record as “no blocking activities”. Besides, in assay [2] (setting [4]), the IC50 was above 32 µM.
With `CC1CCN(c2ccc3nnc(CNS(=O)(=O)N(C)C)n3n2)CC1` [Compound 15], the “inhibitory activity against BD1 (in words)” value in assay [2] (AlphaScreen) is given as “no inhibitory efficacy”. Moreover, the IC50 in assay [2] (setting [4]) is above 32 µM.
On to `Cc1nnc2ccc(N3CCOCC3)nn12` [Compound 16], for which the “inhibitory activity against BD1 (in words)” value in assay [2] (AlphaScreen) is given as “no inhibitory efficacy”. For the same compound, the IC50 in assay [2] (setting [4]) was above 32 µM.
The matching figures for `Cc1nnc2ccc(N3CCSCC3)nn12` [Compound 17]: “no inhibitory efficacy” and above 32 µM.
With `Cc1nnc2ccc(N3C4CCC3COC4)nn12` [Compound 18], in assay [2] (AlphaScreen), the “inhibitory activity against BD1 (in words)” value is “no inhibitory efficacy”. For the same compound, the IC50 in assay [2] (setting [4]) is above 32 µM.
As to `Cc1nnc2ccc(N3CCC4(CCN(C(=O)OC(C)(C)C)CC4)CC3)nn12` [Compound 19], the “inhibitory activity against BD1 (in words)” value in assay [2] (AlphaScreen) was “exhibited inhibitory activities”. Besides, in assay [2] (setting [4]), the IC50 was 9.22 ± 1.6 µM.
For the compound `Cc1nnc2ccc(N3CCC4(CC3)OCCO4)nn12` [Compound 20], the IC50 in assay [2] (setting [4]) was above 32 µM.
On to `Cc1nnc2ccc(N3CCC4(CC3)CN(C(=O)OC(C)(C)C)C4)nn12` [Compound 21], for which the “inhibitory activity against BD1 (in words)” value in assay [2] (AlphaScreen) is listed as “exhibited inhibitory activities”. Further, the IC50 in assay [2] (setting [4]) was 6.21 ± 1.2 µM.
For the compound `Cc1nnc2ccc(N3CCC4(CCNCC4)CC3)nn12` [Compound 22], the concentration for half-maximal inhibition (IC50) in assay [2] (setting [4]) was above 32 µM.
In the case of `Cc1nnc2ccc(N3CCC4(CC3)CNC4)nn12` [Compound 23], in assay [2] (setting [4]), the IC50 was above 32 µM.
Same read-out and setting: next, `CC(C)c1nnc2ccc(N3CCC(C(=O)O)CC3)nn12` [Compound 24, 1-(3-Isopropyl-[1,2,4]triazolo[4,3-b]pyridazin-6-yl)piperidine-4-carboxylic acid]: above 32 µM; `CC(C)CCNC(=O)C1CCN(c2ccc3nnc(C(C)C)n3n2)CC1` [Compound 25, N-(3-methylbutyl)-1-[3-(propan-2-yl)[1,2,4]triazolo[4,3-b]pyridazin-6-yl]piperidine-4-carboxamide]: above 32 µM; `CC(C)c1nnc2ccc(N3CCC(C(=O)NC4CC4)CC3)nn12` [Compound 26, N-cyclopropyl-1-[3-(propan-2-yl)[1,2,4]triazolo[4,3-b]pyridazin-6-yl]piperidine-4-carboxamide]: above 32 µM.
Consider `CC(C)N1CCN(c2ccc3nnc(C4CCC4)n3n2)CC1` [Compound 27, 3-cyclobutyl-6-(4-isopropylpiperazino)[1,2,4]triazolo[4,3-b]pyridazine], for which the IC50 in assay [2] (setting [4]) is above 32 µM.
As for `Cc1nnc2ccc(NCCC(=O)O)nn12` [Compound 28], the IC50 in assay [2] (setting [4]) was above 32 µM.
For `CCS(=O)(=O)NCCNc1ccc2nnc(C)n2n1` [Compound 29], the IC50 in assay [2] (setting [4]) was above 32 µM.
In the case of `Cc1nnc2ccc(NCCO)nn12` [Compound 31], the IC50 in assay [2] (setting [4]) was above 32 µM.
On to `Cc1nnc2ccc(NCCNC(=O)OC(C)(C)C)nn12` [Compound 32], for which the IC50 in assay [2] (setting [4]) is above 32 µM.
In the case of `CCOC(=O)CCNc1ccc2nnc(C)n2n1` [Compound 33], the “inhibitory activity against BD1 (in words)” value in assay [2] (AlphaScreen) is given as “showed inhibitory activity”. Further, the IC50 in assay [2] (setting [4]) turned out to be 7.51 ± 0.63 µM.
For the compound `CCC(=O)NCCNc1ccc2nnc(C)n2n1` [Compound 34], the IC50 in assay [2] (setting [4]) is above 32 µM.
As to `Cc1nnc2ccc(NCc3ccccc3)nn12` [Compound 35], the IC50 in assay [2] (setting [4]) worked out at 10.2 ± 1.29 µM.
As for `COc1ccc(CNc2ccc3nnc(C)n3n2)cc1` [Compound 37], the IC50 in assay [2] (setting [4]) is 8.91 ± 0.94 µM.
Take `Cc1nnc2ccc(NCCC(=O)Nc3ccccc3)nn12` [Compound 38]: in assay [2] (setting [4]), the half-maximal inhibitory concentration (IC50) was above 32 µM.
On to `Cc1nnc2ccc(NCCNC(=O)c3ccccc3)nn12` [Compound 39], for which the IC50 in assay [2] (setting [4]) is above 32 µM.
Consider `Cc1nnc2ccc(NCCNC(=O)Nc3ccccc3)nn12` [Compound 40], for which the IC50 in assay [2] (setting [4]) is above 32 µM.

Source of the values: article PMC10319850, “Crystal structure of [1,2,4] triazolo[4,3- b ]pyridazine derivatives as BRD4 bromodomain inhibitors and structure–activity relationship study” (Scientific Reports, 2023).
